This is an account of results in the SangsterLogP compilation.

By logP is commonly meant a log measure of how a compound divides between an organic and an aqueous phase.

The compound `Nc1ccc(S(=O)(=O)Nc2ncc(Cl)cc2Cl)cc1` showed a logP of 1.97.

In the case of `Cc1cc(Br)cnc1NS(=O)(=O)c1ccc(N)cc1`, the logP stood at 2.05. The logP values of the last two compounds are within 0.2 log units of each other. In turn, `Nc1ccc(S(=O)(=O)Nc2ccccc2Cl)cc1` came in with a logP of 2. `Nc1ccc(S(=O)(=O)Nc2ncc(Br)cc2Br)cc1`: the logP came out at 2.74. The same measure for `Cc1ccccc1NS(=O)(=O)c1ccc(N)cc1`: 2.03; for `Cc1cnc(NS(=O)(=O)c2ccc(N)cc2)c(Br)c1`: 1.79; for `CCc1cnc(NS(=O)(=O)c2ccc(N)cc2)nc1`: 0.84.

With `Cc1ccc(NS(=O)(=O)c2ccc(N)cc2)nc1`, the logP was found to be 0.49. `CN(C)c1ccc(NS(=O)(=O)c2ccc(N)cc2)nc1` yielded a logP of 1.23. In the case of `Nc1ccc(S(=O)(=O)Nc2ccc(Br)cn2)cc1`, the logP was found to be 2.3. Turning to `Nc1ccc(S(=O)(=O)Nc2ccccc2[N+](=O)[O-])cc1`, the logP amounted to 1.76. `Nc1ccc(S(=O)(=O)Nc2ncccc2Cl)cc1` showed a logP of 0.82.

As for `Nc1ccc(S(=O)(=O)Nc2cccnc2Cl)cc1`, the logP turned out to be 1.58. Compound `Nc1ccc(S(=O)(=O)Nc2ncccc2Br)cc1` yielded a logP of 1.24.

For the compound `COc1ccccc1NS(=O)(=O)c1ccc(N)cc1`, the logP was 1.56. Consider `Nc1ccc(S(=O)(=O)Nc2ccc(Cl)cn2)cc1`, for which the logP was 1.82. As for `Cc1cnc(NS(=O)(=O)c2ccc(N)cc2)nc1`, the logP is 0.17. The compound `N#Cc1cccnc1NS(=O)(=O)c1ccc(N)cc1` yielded a logP of 0.15. Turning to `Nc1ccc(S(=O)(=O)Nc2ccc(Cl)nc2)cc1`, the logP turned out to be 2.24. In turn, `Cc1cccnc1NS(=O)(=O)c1ccc(N)cc1` yielded a logP of 0.26.
